Experiments:
[1] = direct application of oil to skin with acne; assay type: in vivo; conditions: applied twice daily directly to skin; after 24 hours
Description: CLA free fatty acid oil was applied twice daily directly to skin with acne.

[2] = tested on: pseudomonas aeruginosa (ATCC 15442); test: 27 hour kinetic growth assay using a redox active dye; assay type: cell-based; conditions: 25 uL test material in TSB, 27 hour kinetic assay
Protocol: (§1) Conjugated linoleic acid (80%) and conjugated linoleic acid diglyceride, containing both trans and cis isomers, were used to show persisting reduction of bacterial growth over several hours. Each measure was accomplished in separate wells. Each well received a unique combination of the following, including controls. Conjugated linoleic acid 80% and conjugated linoleic acid diglyceride, 25 uL were each separately added to Trypticase Soy Broth (TSB). To each solution was added 75 uL TSB plus 50 uL staphylococcus aureus (ATCC 6366) or pseudomonas aeruginosa (ATCC 15442). This was then entered into a 27 hour kinetic assay using a redox active dye to monitor growth. Appropriate controls were simultaneously run.

[3] = tested on: staphylococcus aureus (ATCC 6366); test: as above; assay type: cell-based; conditions: 25 uL test material in TSB, 27 hour kinetic assay
Protocol: as §1

Substance	size and redness of the acne [1]	reduction in bacterial growth beginning at [2] [min]	reduction in bacterial growth sustained for [2] [h]	reduction in bacterial growth beginning at [3] [min]	reduction in bacterial growth sustained for [3] [h]
conjugated linoleic acid [conjugated linoleic free fatty acid]	substantial reduction in the size and redness of the acne	200	27	30	20
conjugated linoleic acid diglyceride [conjugated linoleic diglyceride]	–	200	27	30	20
